Target: Human immunodeficiency virus type 1 integrase (Human immunodeficiency virus 1, UniProt Q7ZJM1)
Assay: Inhibition of HIV1 integrase strand transfer activity

Human immunodeficiency virus type 1 integrase, sequence (Q7ZJM1 whole entry): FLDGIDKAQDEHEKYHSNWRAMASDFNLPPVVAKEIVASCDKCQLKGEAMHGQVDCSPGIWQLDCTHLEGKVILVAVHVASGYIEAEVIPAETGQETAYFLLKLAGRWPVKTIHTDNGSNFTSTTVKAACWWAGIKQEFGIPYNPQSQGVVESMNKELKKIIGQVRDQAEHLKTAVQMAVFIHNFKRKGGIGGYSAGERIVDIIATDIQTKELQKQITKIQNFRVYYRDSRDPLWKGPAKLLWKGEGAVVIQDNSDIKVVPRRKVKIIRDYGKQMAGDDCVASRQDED

## CCCCCC[C@H]1OC(=O)C2=C1[C@@H](O)[C@@H]1O[C@@H]1[C@@H]2O [INTEGRASONE]
  IC50: 41 µM
